Experimental data as given in US9309261B2, “Spirooxindole derivative and process for producing the same” (OKINAWA INSTITUTE OF SCIENCE AND TECHNOLOGY SCHOOL …, priority 2012, dated 2016).

Columns and labels:
Hexokinase-II (HK-II) = molecular target: T1, Hexokinase-II (HK-II) (Homo sapiens, UniProt P52789); assay: Hexokinase 2 inhibition (Transcreener ADP2 assay); assay type: biochemical; conditions: read-out: HK-II Inhibition ADP-FP (% inhibition at 20 μM)
T1 sequence (P52789 1-917): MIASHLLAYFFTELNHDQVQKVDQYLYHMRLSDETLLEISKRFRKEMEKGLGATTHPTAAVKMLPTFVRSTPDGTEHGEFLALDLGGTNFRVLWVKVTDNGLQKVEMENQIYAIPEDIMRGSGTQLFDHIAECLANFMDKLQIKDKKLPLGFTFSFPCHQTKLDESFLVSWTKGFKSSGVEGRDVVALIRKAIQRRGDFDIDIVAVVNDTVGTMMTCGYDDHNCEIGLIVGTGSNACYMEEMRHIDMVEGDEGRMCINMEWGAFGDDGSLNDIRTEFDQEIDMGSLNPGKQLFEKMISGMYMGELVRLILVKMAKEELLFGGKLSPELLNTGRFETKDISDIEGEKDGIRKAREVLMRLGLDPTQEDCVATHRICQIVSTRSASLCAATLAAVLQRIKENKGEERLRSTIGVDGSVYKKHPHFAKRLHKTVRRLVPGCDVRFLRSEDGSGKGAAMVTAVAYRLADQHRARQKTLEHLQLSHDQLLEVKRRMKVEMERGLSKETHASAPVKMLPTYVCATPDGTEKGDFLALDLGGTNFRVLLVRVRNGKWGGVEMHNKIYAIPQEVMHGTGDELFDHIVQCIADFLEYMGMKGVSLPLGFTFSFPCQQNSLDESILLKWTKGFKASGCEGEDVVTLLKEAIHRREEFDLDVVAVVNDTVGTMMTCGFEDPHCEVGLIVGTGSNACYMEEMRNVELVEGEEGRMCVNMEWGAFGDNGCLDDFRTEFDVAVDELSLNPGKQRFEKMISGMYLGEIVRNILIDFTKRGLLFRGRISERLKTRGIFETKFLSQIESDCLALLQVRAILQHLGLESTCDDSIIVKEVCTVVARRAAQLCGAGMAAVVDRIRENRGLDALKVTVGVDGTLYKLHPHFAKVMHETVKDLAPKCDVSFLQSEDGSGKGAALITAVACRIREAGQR
Excerpt: It is well known that tumor cells mainly rely on glycolysis for energy generation and intermediary metabolism, a phenomenon known as the Warburg effect. Hexokinase-II (HK-II), a key enzyme of glycolysis, catalyzes the first step in the conversion of glucose to glucose-6-phosphate. HK-II is highly expressed in many types of tumors and its expression is correlated with glucose uptake, tumor aggressiveness, and poor survival prognosis. Inhibition of HK-II activity attenuates tumor cell growth and induces apoptosis.
The test compounds were added to a typical reaction mixture of HK-II, and the produced ADP concentrations were determined using Transcreener® ADP^2 FI Assay (BellBrook Labs, Madison, Wis., USA).

[1] = Cytotoxicity: K562 cell growth inhibition (Cell Counting Kit-8, WST-8); assay type: cell-based; conditions: human, K562 cells
Method: K562 cells (American Type Culture Collection) were cultured in a culture medium containing 10% (v/v) fetal calf serum (FCS) (manufactures by Sigma) to logarithmic phase. The cells were seeded in 96-well microtiter plate at a density of 5000 cells/well in 100 μL cell culture medium and incubated at 37° C. and 5% CO2 in a humidified incubator overnight. The test compounds of various concentrations were added in a well at 10 fold concentration in 1/10 volume of medium without FCS. After 6-48 hrs incubation at 37° C. in the CO2 incubator, 10 μL solution of the viable cell counting reagent, Cell counting Kit-8 (5 mmol/L WST-8, 0.2 mmol/L 1-Methoxy PMS, 150 mmol/L NaCl) (manufactured by Dojindo) was added to each well, and reacted for 1 to 4 hours in the CO2 incubator. After the incubation, an absorbance of formazan, generated by reduction of WST-8 was determined at 450 nm using a microplate reader.
The assay readout is correlated with the viable cell numbers. Small values correspond to high inhibition and larger values to low inhibition of the cell growth. To determine IC50 values (i.e. the concentration inhibiting the cell growth by 50%) of the compound of formula I, several assays were made with a range of concentrations chosen empirically to give low, high and intermediate inhibition of the growth and determined using the curve fitting software.
IC50 values can be converted logarithmically to pIC50 values (−log IC50), in which higher values indicate exponentially greater potency. The IC50 value is not an absolute value but depends on experimental conditions e.g. concentrations employed.

[2] = test system: tumor cells in which both WNT and KRas signaling pathways are activated; assay: Selective lethality to tumor cells with activated WNT and KRas signaling; assay type: cell-based

SMILES | melting point [°C] | IC50 ([1]; sample with no ee given) [µM] | activity selectively lethal to tumor cells in which both WNT and KRas signaling pathways are activated [2] | also measured
CCC[C@@H]1C[C@@H](NCc2ccccc2)C[C@@]2(O1)C(=O)Nc1ccccc12 [Compound 6, (2′S,4′R,6′R)-4′-(benzylamino)-6-propyl-3′,4′,5′,6-tetrahydrospiro[indoline-3,2′-pyran]-2-one] |  |  |  | inhibition at 20 µM (Hexokinase-II (HK-II)): 37.7%
O=C1C[C@H](c2ccccc2)O[C@@]2(C1)C(=O)Nc1ccccc12 [Compound 3ja, (2′R,6′R)-6′-phenyl-5′,6′-dihydrospiro[indoline-3,2′-pyran]-2,4′(3′H)-dione] |  |  | selectively lethal | inhibition at 20 µM (Hexokinase-II (HK-II)): 33.8%
CCC[C@@H]1CC(=O)C[C@@]2(O1)C(=O)Nc1ccc(Br)cc12 [Compound 3ae, (2′S,6′R)-5-bromo-6′-propyl-5′,6′-dihydrospiro[indoline-3,2′-pyran]-2,4′(3′H)-dione] |  | 20 | selectively lethal | 
CCC[C@@H]1CC(=O)C[C@@]2(O1)C(=O)Nc1cccc(Cl)c12 [Compound 3ab, (2′S,6′R)-4-chloro-6′-propyl-5′,6′-dihydrospiro[indoline-3,2′-pyran]-2,4′(3′H)-dione] |  | 15 | selectively lethal | 
CCC[C@@H]1C/C(=N/NS(=O)(=O)c2ccc(C)cc2)C[C@@]2(O1)C(=O)Nc1ccccc12 (stereo in doubt) | 197 to 199 |  |  | 
CCC[C@@H]1CC(=O)C[C@@]2(O1)C(=O)Nc1cc(Cl)ccc12 [Compound 3af, (2′S,6′R)-6-chloro-6′-propyl-5′,6′-dihydrospiro[indoline-3,2′-pyran]-2,4′(3′H)-dione] |  | 21 | selectively lethal | 
CCC[C@@H]1CC(=O)C[C@@]2(O1)C(=O)Nc1cccc(Br)c12 [Compound 3ac, (2′S,6′R)-4-bromo-6′-propyl-5′,6-dihydrospiro[indoline-3,2′-pyran]-2,4′(3′H)-dione] |  |  | selectively lethal | IC50 ([1]; sample of 82% ee): 16 µM

Second part, led by results:

melting point [°C] | SMILES | IC50 ([1]; sample with no ee given) [µM] | activity selectively lethal to tumor cells in which both WNT and KRas signaling pathways are activated [2] | also measured
189 to 191 | C=CC[C@@]1(O)C[C@@H](CCC)O[C@]2(C1)C(=O)Nc1ccccc12 [Compound 7, (2′S,4′R,6′R)-4′-allyl-4′-hydroxy-6-propyl-3′,4′,5′,6-tetrahydrospiro[indoline-3,2′-pyran]-2-one] | > 212 |  | IC50 ([1]; sample of 87% ee): > 212 µM
118 to 120 | CCC[C@@H]1CC(=O)C[C@@]2(O1)C(=O)Nc1ccccc12 [Compound 3aa, (2′S,6′R)-6′-Propyl-5′,6′-dihydrospiro[indoline-3,2′-pyran)-2,4′(3′H)-dione] | 125 |  | IC50 ([1]; sample of 99% ee): 130 µM
199 to 201 | O=C1C[C@@H](CCN2C(=O)c3ccccc3C2=O)O[C@]2(C1)C(=O)Nc1ccccc12 [Compound 3ga, (2′S,6′R)-6′-(2-(1,3-dioxoisoindolin-2-yl)ethyl)-5′,6′-dihydrospiro[indoline-3,2′-pyran]-2,4′(3′H)-dione] |  |  | IC50 ([1]; sample of 91% ee): 113 µM
169 to 171 | CCC[C@@H]1C[C@@H](O)C[C@@]2(O1)C(=O)Nc1ccccc12 [Compound 5, (2′S,4′R,6′R)-4′-hydroxy-6′-propyl-3′,4′,5′,6′-tetrahydrospiro[indoline-3,2′-pyran]-2-one] | > 245 |  | IC50 ([1]; sample of 92% ee): > 245 µM
